Assay results taken from US12485073B2, “Oral care compositions and methods of use” (Colgate-Palmolive Company, priority 2019, dated 2025).

Assays:
[1] = 1H NMR analysis of MeSA hydrolysis in aqueous alkaline solution; assay type: physicochemical; conditions: for effect of added amino acid or derivative on MeSA hydrolysis rate: pH 9.0, aqueous solution (FIG. 4, 7, 8); for ester hydrolysis: with or without Gly at pH 9.0, within 48 hours (FIG. 4)
From the text: Direct detection and quantification of MeSA in aqueous solution is challenging due to its low water solubility. While ^1H NMR provides structural and quantitative information of the specific substrate in the aqueous mixture, the greatest limitation of NMR is its poor sensitivity. […] Typically, a high concentration of substrate is needed for NMR quantitative analysis. However, to quantify a substrate by NMR at concentrations at or below about 0.1 wt. % in water is not possible without effective solvent suppression. To overcome this hurdle, composite n/2 pulses were applied prior to pre-saturation pulses to effectively suppress the water peak of the sample.
Studies were conducted to test how pH affects MeSA hydrolysis.
Next, the phenolic hydroxyl group was examined to test whether it affects hydrolysis of MeSA at basic pH. The hydrolysis of two analogue compounds, namely, methyl benzoate and methyl paraben were studied as comparators.
The t-butyloxycarbonyl (BOC) and methyl ester groups are routinely used in peptide synthesis to protect amine and carboxyl group of amino acid from reaction.

[2] = Methyl salicylate concentration versus pH in presence of arginine, UV/Vis (FIG. 9); assay type: physicochemical
From the text: As shown, degradation of methyl salicylate can be substantially mitigated even in the presence of an amino acid under accelerated aging conditions. A curve for the relationship between pH and the above compositions is illustrated in FIG. 9.

Row | Compound | effect of added amino acid or derivative on MeSA hydrolysis rate [1] | ester hydrolysis [1] | other results
1 | COC(=O)CNC(=O)OC(C)(C)C [Boc-Gly methyl ester, reference compound] | significantly reduces to the same level as that of MeSA without Gly |  | 
2 | CC(C)(C)OC(=O)NCC(=O)O [Boc-Gly-OH, reference compound] | much faster than that of MeSA alone |  | 
3 | COC(=O)CN [Gly methyl ester, reference compound] | slightly faster than that of MeSA only |  | 
4 | COC(=O)c1ccccc1O [MeSA, Methyl salicylate] |  | significant hydrolysis | reduction of peak intensity of the methyoxy group of MeSA ([1]; after 12 hr hydrolysis, 0.05 wt % MeSA + 0.025 wt % glycine, pH 9.0, 25° C.): about 30%; degradation of MeSA concentration (hydrolysis rate) as solution is more basic ([1]; water without amino acid, pH range 8 to 11.5 (FIG. 3)): becomes faster; MeSA hydrolysis ([1]; with Gly at pH 7.0): drastically reduced; MeSA degradation ([2]; pH 7.5): dramatically increases; preservation of MeSA ([2]; pH at 6.5 or 7.0): good preservation
5 | NCCCC[C@H](N)C(=O)O [lysine] | accelerate the degradation of MeSA |  | 
6 | COC(=O)c1ccccc1 [methyl benzoate, reference compound] |  | no ester hydrolysis | 
7 | COC(=O)c1ccc(O)cc1 [methyl paraben, reference compound] |  | no ester hydrolysis | 
